For 24 compounds, IC50 results are on record in patent US8623859B2, “Bradykinin B1 antagonists” (Evotec AG, priority 2008, dated 2014).

Structures can show the parent of a compound that is named as a salt.

The target of this assay is T1, human B1 (Homo sapiens, UniProt P46663).
T1 construct: host or cells: CHO-K1
T1 sequence (P46663 1-353): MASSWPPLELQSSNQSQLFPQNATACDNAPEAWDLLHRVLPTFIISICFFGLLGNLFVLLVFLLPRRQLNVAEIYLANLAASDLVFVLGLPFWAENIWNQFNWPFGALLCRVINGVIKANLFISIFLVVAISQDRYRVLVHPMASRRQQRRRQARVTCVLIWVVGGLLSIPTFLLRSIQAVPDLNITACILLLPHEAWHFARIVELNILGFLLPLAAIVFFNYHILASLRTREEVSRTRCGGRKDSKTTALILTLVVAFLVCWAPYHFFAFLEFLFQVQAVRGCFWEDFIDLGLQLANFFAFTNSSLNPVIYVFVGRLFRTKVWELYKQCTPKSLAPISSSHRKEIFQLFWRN
In words: Calcium flux assay for Bradykinin B1 antagonist, CHO-K1 cell line expressing human B1. It counts as cell-based. The settings on record: CHO-K1 cells expressing human B1, agonist Lys-(Des-Arg)-Bradykinin, read-out: Potency (IC50 value against human B1). In outline: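 Inhibition of B1 agonist-evoked intracellular Ca2+ rise was followed by continuous fluorescence at 538 nm, with integrated, background-normalized signals plotted versus log compound concentration. Test compounds (eight 10-fold dilutions, triplicate, 1% DMSO final) were added 30 min at 25° C beforehand to Fluo-4AM-loaded human B1 CHO-K1 cells in pH 7.4 assay buffer.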

Turning to `COc1cc(C)c(S(=O)(=O)N(C)Cc2cc(C(=O)N(C)Cc3ccc(CN4CCCC4)c(F)c3)co2)c(C)c1` [Ex 157, N-[3-Fluoro-4-(pyrrolidin-1-ylmethyl)benzyl]-5-({[(4-methoxy-2,6-dimethylphenyl)sulfonyl](methyl)amino}methyl)-N-methylfuran-3-carboxamide trifluoroacetate], the IC50 was 10 to 100 nM.

`COc1cc(C)c(S(=O)(=O)N(C)Cc2cc(C(=O)N(C)Cc3cc(F)cc(CN4CCCC4)c3)co2)c(C)c1` [Ex 158, N-[3-Fluoro-5-(pyrrolidin-1-ylmethyl)benzyl]-5-({[(4-methoxy-2,6-dimethylphenyl)sulfonyl](methyl)amino}methyl)-N-methylfuran-3-carboxamide trifluoroacetate]: the concentration for half-maximal inhibition (IC50) fell in the range of 10 to 100 nM.

Consider `COc1cc(C)c(S(=O)(=O)N(C)Cc2nc(C(=O)N(C)Cc3ccc(C[N+]4([O-])CCCC4)cc3)co2)c(C)c1` [Ex 159, 2-({[(4-Methoxy-2,6-dimethylphenyl)sulfonyl](methyl)amino}methyl)-N-methyl-N-{4-[(1-oxidopyrrolidin-1-yl)methyl]benzyl}-1,3-oxazole-4-carboxamide trifluoroacetate], for which the IC50 was in the range of 100 to 1000 nM.

On to `COc1cc(C)c(S(=O)(=O)N(Cc2nc(C(=O)NCCC3CCCNC3)co2)C2CC2)c(C)c1` (stereo not drawn) [Ex 159a, 2-({Cyclopropyl[(4-methoxy-2,6-dimethylphenyl)sulfonyl]amino}methyl)-N-(2-piperidin-3-ylethyl)-1,3-oxazole-4-carboxamide], for which the IC50 fell in the range of 100 to 1000 nM.

As for `COc1cc(C)c(S(=O)(=O)N(Cc2nc(C(=O)N(C)Cc3csc(CN4CCCC4)n3)co2)C2CC2)c(C)c1` [Ex 160, 2-({Cyclopropyl[(4-methoxy-2,6-dimethylphenyl)sulfonyl]amino}methyl)-N-methyl-N-{[2-(pyrrolidin-1-ylmethyl)-1,3-thiazol-4-yl]methyl}-1,3-oxazole-4-carboxamide], the concentration for half-maximal inhibition (IC50) was 10 to 100 nM.

As to `COc1cc(C)c(S(=O)(=O)N(Cc2nc(C(=O)N3CCN(c4ccncc4)CC3)co2)C2CC2)c(C)c1` [Ex 161, N-Cyclopropyl-4-methoxy-2,6-dimethyl-N-({4-[(4-pyridin-4-ylpiperazin-1-yl)carbonyl]-1,3-oxazol-2-yl}methyl)benzenesulfonamide trifluoroacetate], the half-inhibitory concentration (IC50) fell in the range of 100 to 1000 nM.

Turning to `COc1cc(C)c(S(=O)(=O)N(Cc2nc(C(=O)N3CCN(Cc4ccncc4)CC3)co2)C2CC2)c(C)c1` [Ex 162, N-Cyclopropyl-4-methoxy-2,6-dimethyl-N-[(4-{[4-(pyridin-4-ylmethyl)piperazin-1-yl]carbonyl}-1,3-oxazol-2-yl)methyl]benzenesulfonamide trifluoroacetate], the IC50 was < 10 nM.

With `COc1cc(C)c(S(=O)(=O)N(Cc2nc(C(=O)N3CCN(Cc4cccnc4)CC3)co2)C2CC2)c(C)c1` [Ex 163, N-Cyclopropyl-4-methoxy-2,6-dimethyl-N-[(4-{[4-(pyridin-3-ylmethyl)piperazin-1-yl]carbonyl}-1,3-oxazol-2-yl)methyl]benzenesulfonamide trifluoroacetate], the IC50 is < 10 nM.

As for `COc1cc(C)c(S(=O)(=O)N(C)Cc2nc(C(=O)N3CCN(CCN4CCCC4)CC3)co2)c(C)c1` [Ex 164, 4-Methoxy-N,2,6-trimethyl-N-[(4-{[4-(2-pyrrolidin-1-ylethyl)piperazin-1-yl]carbonyl}-1,3-oxazol-2-yl)methyl]benzenesulfonamide], the IC50 was in the range of 100 to 1000 nM.

Regarding `COc1cc(C)c(S(=O)(=O)N(Cc2nc(C(=O)N3CCN(C4CCN(C)CC4)CC3)co2)C2CC2)c(C)c1` [Ex 165, N-Cyclopropyl-4-methoxy-2,6-dimethyl-N-[(4-{[4-(1-methylpiperidin-4-yl)piperazin-1-yl]carbonyl}-1,3-oxazol-2-yl)methyl]benzenesulfonamide], the half-inhibitory concentration (IC50) was < 10 nM.

On to `COc1cc(C)c(S(=O)(=O)N(C)Cc2nc(C(=O)N(C)Cc3ccc(CN4CCC(O)CC4)cc3)co2)c(C)c1` [Ex 166, N-{4-[(4-Hydroxypiperidin-1-yl)methyl]benzyl}-2-({[(4-methoxy-2,6-dimethylphenyl)sulfonyl](methyl)amino}methyl)-N-methyl-1,3-oxazole-4-carboxamide], for which the IC50 was < 10 nM.

With `COc1cc(C)c(S(=O)(=O)N(C)Cc2nc(C(=O)N(C)Cc3ccc(CN4CCC(OC)CC4)cc3)co2)c(C)c1` [Ex 167, 2-({[(4-Methoxy-2,6-dimethylphenyl)sulfonyl](methyl)amino}methyl)-N-{4-[(4-methoxypiperidin-1-yl)methyl]benzyl}-N-methyl-1,3-oxazole-4-carboxamide], the 50% inhibitory concentration (IC50) is < 10 nM.

With `COc1cc(C)c(S(=O)(=O)N(C)Cc2nc(C(=O)N(C)Cc3ccc(CN4CCCC(OC)C4)cc3)co2)c(C)c1` (stereo not drawn) [Ex 168, 2-({[(4-Methoxy-2,6-dimethylphenyl)sulfonyl](methyl)amino}methyl)-N-{4-[(3-methoxypiperidin-1-yl)methyl]benzyl}-N-methyl-1,3-oxazole-4-carboxamide], the IC50 is 10 to 100 nM.

For the compound `COc1cc(C)c(S(=O)(=O)N(C)Cc2nc(C(=O)N(C)Cc3ccc(CN4CCC(OC)C4)cc3)co2)c(C)c1` (stereo not drawn) [Ex 169, 2-({[(4-Methoxy-2,6-dimethylphenyl)sulfonyl](methyl)amino}methyl)-N-{4-[(3-methoxypyrrolidin-1-yl)methyl]benzyl}-N-methyl-1,3-oxazole-4-carboxamide], the concentration for half-maximal inhibition (IC50) was < 10 nM.

Turning to `COc1cc(C)c(S(=O)(=O)N(C)Cc2nc(C(=O)N(C)Cc3ccc(CN4CCC(NC(C)=O)C4)cc3)co2)c(C)c1` (stereo not drawn) [Ex 170, N-(4-{[3-(Acetylamino)pyrrolidin-1-yl]methyl}benzyl)-2-({[(4-methoxy-2,6-dimethylphenyl)sulfonyl](methyl)amino}methyl)-N-methyl-1,3-oxazole-4-carboxamide], the IC50 fell in the range of 10 to 100 nM.

`COc1cc(C)c(S(=O)(=O)N(C)Cc2nc(C(=O)N(C)Cc3ccc(CN4CCC(C(=O)N(C)C)C4)cc3)co2)c(C)c1` (stereo not drawn) [Ex 171, N-(4-{[3-(Dimethylcarbamoyl)pyrrolidin-1-yl]methyl}benzyl)-2-({[(4-methoxy-2,6-dimethylphenyl)sulfonyl](methyl)amino}methyl)-N-methyl-1,3-oxazole-4-carboxamide]: the 50% inhibitory concentration (IC50) is < 10 nM.

As for `COc1cc(C)c(S(=O)(=O)N(C)Cc2nc(C(=O)N(C)Cc3ccc(CN4CC(O)C4)cc3)co2)c(C)c1` [Ex 172, N-{4-[(3-Hydroxyazetidin-1-yl)methyl]benzyl}-2-({[(4-methoxy-2,6-dimethylphenyl)sulfonyl](methyl)amino}methyl)-N-methyl-1,3-oxazole-4-carboxamide], the IC50 lay within 10 to 100 nM.

On to `COc1cc(C)c(S(=O)(=O)N(C)Cc2nc(C(=O)N(C)Cc3ccc(CN4CC(OC)C4)cc3)co2)c(C)c1` [Ex 173, N-{4-[(3-Methoxyazetidin-1-yl)methyl]benzyl}-2-({[(4-methoxy-2,6-dimethylphenyl)sulfonyl](methyl)amino}methyl)-N-methyl-1,3-oxazole-4-carboxamide], for which the IC50 was in the range of 10 to 100 nM.

On to `COc1cc(C)c(S(=O)(=O)N(C)Cc2nc(C(=O)N3CCN(CCCN4CCCC4)CC3)co2)c(C)c1` [Ex 174, 4-Methoxy-N,2,6-trimethyl-N-[(4-{[4-(3-pyrrolidin-1-ylpropyl)piperazin-1-yl]carbonyl}-1,3-oxazol-2-yl)methyl]benzenesulfonamide], for which the 50% inhibitory concentration (IC50) was < 10 nM.

In the case of `COc1cc(C)c(S(=O)(=O)N(C)Cc2nc(C(=O)N3CCN(CC4CCN(C)CC4)CC3)co2)c(C)c1` [Ex 175, 4-Methoxy-N,2,6-trimethyl-N-{[4-({4-[(1-methylpiperidin-4-yl)methyl]piperazin-1-yl}carbonyl)-1,3-oxazol-2-yl]methyl}benzenesulfonamide], the IC50 is < 10 nM.

As to `COc1cc(C)c(S(=O)(=O)N(Cc2nc(C(=O)N(C)Cc3ccc(CN4CCC(O)C4)cc3)co2)C2CC2)c(C)c1` (stereo not drawn) [Ex 176, 2-({Cyclopropyl[(4-methoxy-2,6-dimethylphenyl)sulfonyl]amino}methyl)-N-{4-[(3-hydroxypyrrolidin-1-yl)methyl]benzyl}-N-methyl-1,3-oxazole-4-carboxamide], the IC50 is < 10 nM.

Take `COc1cc(C)c(S(=O)(=O)N(C)Cc2nc(C(=O)N(C)Cc3ccc(CN4CCC(N(C)C)C4)cc3)co2)c(C)c1` (stereo not drawn) [Ex 177, N-(4-{[3-(Dimethylamino)pyrrolidin-1-yl]methyl}benzyl)-2-({[(4-methoxy-2,6-dimethylphenyl)sulfonyl](methyl)amino}methyl)-N-methyl-1,3-oxazole-4-carboxamide]: the IC50 lay in the range of 10 to 100 nM.

Take `COc1cc(C)c(S(=O)(=O)N(C)Cc2nc(C(=O)N(C)Cc3ccc(CN4CCC(O)C4)cc3)co2)c(C)c1` (stereo not drawn) [Ex 178, N-{4-[(3-Hydroxypyrrolidin-1-yl)methyl]benzyl}-2-({[(4-methoxy-2,6-dimethylphenyl)sulfonyl](methyl)amino}methyl)-N-methyl-1,3-oxazole-4-carboxamide]: the IC50 is < 10 nM.

As to `COc1cc(C)c(S(=O)(=O)N(C)Cc2nc(C(=O)N(C)Cc3ccc(CN4CCCC(O)C4)cc3)co2)c(C)c1` (stereo not drawn) [Ex 179, N-{4-[(3-Hydroxypiperidin-1-yl)methyl]benzyl}-2-({[(4-methoxy-2,6-dimethylphenyl)sulfonyl](methyl)amino}methyl)-N-methyl-1,3-oxazole-4-carboxamide], the IC50 was < 10 nM.
